How the values were obtained:
[1] = test system: HSV-1 infected mice (zoster-associated pain in acute phase); assay: Mouse model of herpes zoster, pain-associated reaction to von Frey filament (0.16 g) after intrathecal administration; assay type: in vivo; settings: five to seven days after infection
From the text: Epidermis of the right hind leg (lower part of knee joint) of shaven female C57BL/6J mice was chopped with a bundle of ten 26G injection needles, and coated with a solution (1×10^6 pfu/site) of herpes simplex virus Type I (HSV-1), which as well as varicella zoster virus, belongs to Herpesviridae (family) (Takasaki I, et al., Anesthesiology, 2002, 96:1168-1174). Seven days after infection, the spinal cord was collected after perfusion of 4% neutral buffered paraformaldehyde, replaced with 30% sucrose solution, embedded with OCT compound to prepare frozen slices. […]
The effect of P2X4 receptor antagonism on zoster-associated pain in acute phase was studied using the mouse model of herpes zoster described in Example 2. […] Threshold of the pain was measured before administration of the drug (AM 9:30 to 10:00 and PM 5:30 to 6:00). Pain-associated reaction on the HSV-1 infection side hindpaw was measured using von Frey Filament (0.16 g). […] The pain reaction was evaluated as follows: • Score 0: No reaction • Score 1: Lifting of hind leg • Score 2: Sharp evasion reaction and flinching of hind leg
Each individual pain score was calculated by averaging six scores. The allodynia score (%) was calculated as the average score of each group by counting the maximum reaction score 2 as 100%.
Threshold of the pain was measured before administration of the drugs (AM 9:30 to 10:00 and PM 5:30 to 6:00).

[2] = test system: HSV-1 infected mice (zoster-associated pain); assay: Mouse model of herpes zoster, pain-associated reaction to paintbrush stimulus after oral administration; assay type: in vivo
From the text: Epidermis of the right hind leg (lower part of knee joint) of shaven female C57BL/6J mice was chopped with a bundle of ten 26G injection needles, and coated with a solution (1×10^6 pfu/site) of herpes simplex virus Type I (HSV-1), which as well as varicella zoster virus, belongs to Herpesviridae (family) (Takasaki I, et al., Anesthesiology, 2002, 96:1168-1174). Seven days after infection, the spinal cord was collected after perfusion of 4% neutral buffered paraformaldehyde, replaced with 30% sucrose solution, embedded with OCT compound to prepare frozen slices. A specimen in cross section was prepared at the fifth lumbar level of the spinal cord, and was subjected to a fluorescent double immunostaining according to Alexa Fluor 488, 546 using OX42 antibody, which has widely been used as a microglia marker, and P2X4 receptor antibody. […] The pain-associated reaction of the hindpaw on the HSV-1 infection side was measured and evaluated referring to the response to a contact stimulant using a paint-brush. The mouse was placed into a cage for measurement, and accustomed to the environment for 1 hour or more. The plantar surface of the right hindpaw was vertically stroked with the paintbrush along the direction from toe to heal, and this was repeated six times at intervals of several seconds. The pain reaction was evaluated as follows: • Score 0: No reaction • Score 1: Lifting of hind leg • Score 2: Sharp evasion reaction and flinching of hind leg Each individual pain score was calculated by averaging six scores.

[3] = biological target: T1, P2X4 receptor (Homo sapiens, UniProt Q99571); settings: reported in cited WO documents and Nagata K, Imai T et al., Molecular Pain, 2009, 5:20; cited from earlier work
T1 sequence (Q99571 1-388): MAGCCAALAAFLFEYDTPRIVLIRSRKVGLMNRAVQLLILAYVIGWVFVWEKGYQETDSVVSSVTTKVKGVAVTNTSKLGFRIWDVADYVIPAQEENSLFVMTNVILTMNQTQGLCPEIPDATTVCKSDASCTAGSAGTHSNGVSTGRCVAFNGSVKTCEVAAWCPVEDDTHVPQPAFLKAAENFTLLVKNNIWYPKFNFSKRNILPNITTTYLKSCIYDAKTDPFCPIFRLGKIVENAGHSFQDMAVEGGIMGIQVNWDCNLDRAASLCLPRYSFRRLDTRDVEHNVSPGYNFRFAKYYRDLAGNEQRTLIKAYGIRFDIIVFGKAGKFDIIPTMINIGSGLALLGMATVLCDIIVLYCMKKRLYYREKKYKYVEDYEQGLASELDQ

## O=C1CC(=O)N(c2cccc(-c3noc(=S)[nH]3)c2)c2ccc3ccccc3c2N1.[Na] [Compound A, 5-[3-(5-thioxo-4H-[1,2,4]oxadiazol-3-yl)phenyl]-1H-naphtho[1,2-b][1,4]diazepine-2,4(3H,5H)-dione sodium salt]
[1]; 10 pmol/mouse intrathecal twice a day
  threshold score of the pain (von Frey, allodynia score): significantly suppressed
[1]; 30 pmol/mouse intrathecal twice a day
  threshold score of the pain (von Frey, allodynia score): significantly suppressed

## Fc1ccc([C@@H]2CCNC[C@H]2COc2ccc3c(c2)OCO3)cc1 [Paroxetine]
[2]; seven days after infection (acute phase), 30 mg/kg oral, from 1 hour to 4 hours after administration
  threshold of the pain (paintbrush pain score): significantly improved
[2]; seven days after infection (acute phase), 50 mg/kg oral, from 30 minutes to 8 hours after administration
  threshold of the pain (paintbrush pain score): continuously improved
[2]; thirty days after infection (postherpetic neuralgia), 30 mg/kg oral
  threshold of the pain (paintbrush pain score): did not show any significant improvement
[2]; thirty days after infection (postherpetic neuralgia), 50 mg/kg oral, 30 minutes, 1 hour and 4 hours after administration
  threshold of the pain (paintbrush pain score): significant improvement was observed
[3]
  P2X4 receptor antagonism / inhibition (in words): functions as an inhibitor of P2X4 receptor
